{"source": "patent US10653658B2", "about": "“Biofilm inhibiting compositions enhancing weight gain in livestock” (Akeso Biomedical, Inc., priority 2015, dated 2020)", "key": {"[1]": {"system": "E. coli", "assay": "E. coli cfu/g of caeca at day 42 (Example 10)", "format": "in vivo", "procedure": "(§1) A study was performed to evaluate growth promotion and reduction of Campylobacter carriage using FeTyr in Ross 308 male broilers with 7 treatment groups. Each treatment group comprised eight replicates of 10 birds per pen (80 birds/treatment group), with 2 control groups and […]. All the test groups and both of the control groups were exposed at day 20 of the trial to dirty litter, which tested positive for Campylobacter. This method was used to provide a more natural method to Campylobacter challenge the birds. Thus there were two positive controls where each treatment group was challenged with Campylobacter, and five treatment groups that were all challenged with Campylobacter. The total number of birds used in the 7 treatment groups was 560.\n(§2) At day 20, litter, which was naturally Campylobacter-contaminated, was tested to confirm the presence of Campylobacter, and then added (approximately 2 kg/pen) to the litter in all pens. At day 42, caecal samples were taken and tested for Campylobacter, E. coli and Salmonella enumeration."}, "[2]": {"system": "Campylobacter jejuni NCTC 11168", "assay": "Biofilm formation on plastic coated UV beads (Example 6)", "details": "Fe-Tart and Fe-Cit at 50, 100, and 300 μM; FeQ (QPLEX) at 300"}, "[3]": {"assay": "Dose ranging study of FeTyr (TYPLEX) in feed, zootechnical performance of broilers, dirty litter challenge at day 20 (Example 10)", "format": "in vivo, Ross 308 male broilers", "details": "for AFI / AWG / MFCR / AFI/bird/period / AWG/bird/period: 0.22 g Q-PLEX/kg feed", "procedure": "as §1\nTreatment group 1 was a positive control where birds just received the commercial feed, and were challenged with dirty litter containing Campylobacter at day 20. Treatment group 2 received 0.01 g/kg of TYPLEX (FeTyr) in their feed, and were challenged with dirty litter containing Campylobacter at day 20. Treatment group 3 received 0.02 g/kg of TYPLEX (FeTyr) in their feed, and was challenged with dirty litter containing Campylobacter at day 20. Treatment group 4 received 0.05 g/kg of TYPLEX (FeTyr) in their feed, and was challenged with dirty litter containing Campylobacter at day 20. Treatment group 5 received 0.1 g/kg of TYPLEX (FeTyr) in their feed, and was challenged with dirty litter containing Campylobacter at day 20. Treatment group 6 received 0.2 g/kg of TYPLEX (FeTyr) in their feed, and was challenged with dirty litter containing Campylobacter at day 20. […] The birds were fed with a commercial three-phase feeding program using starter, grower and finisher feeds as described in Example 1. The birds were reared in floor pens to day 42, and fed starter, grower and finisher feed at day 0 to 11, 11 to 24, and 24 to 42 days, respectively. All birds were weighed individually and feed weigh backs recorded per pen at day 0, 11, 21, 24 and 42 days.\nas §2\nIn order to minimize risk of cross-contamination, standard industry biosecurity measures were used including: disinfecting boots, changing overshoes and gloves between pens/treatments, entering Campylobacter negative pens before entering Campylobacter positive pens, and leaving adjacent pens empty. Daily health, culls, and mortality were recorded. All bird weights were recorded at 0, 11, 21, 24, 33 and 42 days. Weight gains, feed intake and feed conversion ratio (FCR) were derived for each feeding period."}}, "note": "Marks after values point to notes of the source that are not given here.", "data": [{"smiles": "O=C([O-])C1(O)CC(O)C(O)C(O)C1.O=C([O-])C1(O)CC(O)C(O)C(O)C1.O=C([O-])C1(O)CC(O)C(O)C(O)C1.[Fe+3]", "note": "(stereo not shown) [FeQ, Ferric Quinate]", "values": [{"measurement": "E. coli cfu/g of caeca at day 42 (FIG. 16)", "setting": "[1]; in feed", "value": "positive effect on reducing Campylobacter infection"}, {"measurement": "levels of E. coli in poultry upon treatment", "setting": "[1]; poultry data", "value": "lower levels of E. coli"}, {"measurement": "C. jejuni biofilm formation on plastic coated UV beads (FIG. 9)", "setting": "[2]", "value": "inhibited C. jejuni biofilm formation"}, {"measurement": "AFI", "setting": "[3]; 0-25 d of age", "value": 1.898, "unit": "kg"}, {"measurement": "AWG", "setting": "[3]; 0-25 d of age", "value": "1.422^c kg"}, {"measurement": "MFCR", "setting": "[3]; 0-25 d of age", "value": "1.335^a feed:gain"}, {"measurement": "AFI/bird/period", "setting": "[3]; 0-35 d of age", "value": 3.815, "unit": "kg"}, {"measurement": "AWG/bird/period", "setting": "[3]; 0-35 d of age", "value": 0.668, "unit": "kg"}, {"measurement": "MFCR", "setting": "[3]; 0-35 d of age", "value": "1.458^a feed:gain"}, {"measurement": "AFI/bird/period", "setting": "[3]; 0-42 d of age", "value": 5.279, "unit": "kg"}, {"measurement": "AWG/bird/period", "setting": "[3]; 0-42 d of age", "value": "3.448^ab kg"}, {"measurement": "MFCR", "setting": "[3]; 0-42 d of age", "value": "1.547^a feed:gain"}, {"measurement": "AFI", "setting": "[3]; 35 to 42 d of age", "value": 1.464, "unit": "kg"}, {"measurement": "AWG", "setting": "[3]; 35 to 42 d of age", "value": 0.790, "unit": "kg"}, {"measurement": "MFCR", "setting": "[3]; 35 to 42 d of age", "value": "1.864 feed:gain"}, {"measurement": "ABW (average body weight/pen) 1 d", "setting": "[3]; T7 0.22 g Q-PLEX/kg feed", "value": 0.040, "unit": "kg"}, {"measurement": "ABW (average body weight/pen) 11 d", "setting": "[3]; T7 0.22 g Q-PLEX/kg feed", "value": "0.350^b kg"}, {"measurement": "ABW (average body weight/pen) 20 d", "setting": "[3]; T7 0.22 g Q-PLEX/kg feed", "value": 0.968, "unit": "kg"}, {"measurement": "ABW (average body weight/pen) 25 d", "setting": "[3]; T7 0.22 g Q-PLEX/kg feed", "value": "1.463^c kg"}, {"measurement": "ABW (average body weight/pen) 28 d", "setting": "[3]; T7 0.22 g Q-PLEX/kg feed", "value": "1.836^b kg"}, {"measurement": "ABW (average body weight/pen) 30 d", "setting": "[3]; T7 0.22 g Q-PLEX/kg feed", "value": "2.031^b kg"}, {"measurement": "ABW (average body weight/pen) 35 d", "setting": "[3]; T7 0.22 g Q-PLEX/kg feed", "value": "2.698^ab kg"}, {"measurement": "ABW (average body weight/pen) 42 d", "setting": "[3]; T7 0.22 g Q-PLEX/kg feed", "value": "3.488^ab kg"}, {"measurement": "AFI (mean feed intake/pen) 1 to 11 d", "setting": "[3]; T7 0.22 g Q-PLEX/kg feed", "value": "0.357^b kg"}, {"measurement": "AFI (mean feed intake/pen) 11 to 20 d", "setting": "[3]; T7 0.22 g Q-PLEX/kg feed", "value": "0.836^ab kg"}, {"measurement": "AFI (mean feed intake/pen) 11 to 25 d", "setting": "[3]; T7 0.22 g Q-PLEX/kg feed", "value": 1.541, "unit": "kg"}, {"measurement": "AFI (mean feed intake/pen) 20 to 35 d", "setting": "[3]; T7 0.22 g Q-PLEX/kg feed", "value": 2.622, "unit": "kg"}, {"measurement": "AFI (mean feed intake/pen) 25-42 d", "setting": "[3]; T7 0.22 g Q-PLEX/kg feed", "value": 3.381, "unit": "kg"}, {"measurement": "AFI/bird/period 20-25 d", "setting": "[3]; T7 0.22 g Q-PLEX/kg feed", "value": 0.705, "unit": "kg"}, {"measurement": "AFI/bird/period 25-35 d", "setting": "[3]; T7 0.22 g Q-PLEX/kg feed", "value": 1.917, "unit": "kg"}, {"measurement": "AWG (mean weight gain/pen) 1 to 11 d", "setting": "[3]; T7 0.22 g Q-PLEX/kg feed", "value": "0.310^b kg"}, {"measurement": "AWG (mean weight gain/pen) 11 to 20 d", "setting": "[3]; T7 0.22 g Q-PLEX/kg feed", "value": 0.618, "unit": "kg"}, {"measurement": "AWG (mean weight gain/pen) 11 to 25 d", "setting": "[3]; T7 0.22 g Q-PLEX/kg feed", "value": "1.113^b kg"}, {"measurement": "AWG (mean weight gain/pen) 20 to 35 d", "setting": "[3]; T7 0.22 g Q-PLEX/kg feed", "value": "1.730^ab kg"}, {"measurement": "AWG (mean weight gain/pen) 25-42 d", "setting": "[3]; T7 0.22 g Q-PLEX/kg feed", "value": "2.026^ab kg"}, {"measurement": "AWG/bird/period 20-25 d", "setting": "[3]; T7 0.22 g Q-PLEX/kg feed", "value": 0.495, "unit": "kg"}, {"measurement": "AWG/bird/period 25-35 d", "setting": "[3]; T7 0.22 g Q-PLEX/kg feed", "value": "1.236^abc kg"}, {"measurement": "MFCR 1 to 11 d", "setting": "[3]; T7 0.22 g Q-PLEX/kg feed", "value": "1.150^x feed:gain"}, {"measurement": "MFCR 11 to 20 d", "setting": "[3]; T7 0.22 g Q-PLEX/kg feed", "value": "1.357^ab feed:gain"}, {"measurement": "MFCR 11 to 25 d", "setting": "[3]; T7 0.22 g Q-PLEX/kg feed", "value": "1.387^a feed:gain"}, {"measurement": "MFCR 20-25 d", "setting": "[3]; T7 0.22 g Q-PLEX/kg feed", "value": "1.430^a feed:gain"}, {"measurement": "MFCR 20 to 35 d", "setting": "[3]; T7 0.22 g Q-PLEX/kg feed", "value": "1.554^a feed:gain"}, {"measurement": "MFCR 25-35 d", "setting": "[3]; T7 0.22 g Q-PLEX/kg feed", "value": "1.607^ab feed:gain"}, {"measurement": "MFCR 25-42 d", "setting": "[3]; T7 0.22 g Q-PLEX/kg feed", "value": "1.703^ab feed:gain"}, {"measurement": "MFCR at day 42 compared to control group (FIG. 13)", "setting": "[3]; all treatment groups, in feed", "value": "improved MFCR values"}, {"measurement": "average body weight at day 42 compared with control group (FIG. 12)", "setting": "[3]; all treatment groups, in feed", "value": "higher average body weight"}]}]}
